# Laboratory results taken from ChEMBL document CHEMBL4422649, “Soluble-type small-molecule CD4 mimics as HIV entry inhibitors” (Bioorg Med Chem Lett, 2019).
# Legend:
# [1] = Cytotoxicity against human TZM-b1 cells assessed as reduction in cell viability by CCK8 assay; type: cell-based
# [2] = target: Envelope glycoprotein gp160 (Human immunodeficiency virus 1, UniProt Q6QLK5); test: Binding affinity to HIV1 cYTA48P envelope glycoprotein gp120 infected in human TZM-b1 cells assessed as induction of conformational changes measured after 48 hrs; type: cell-based
# Sequence of Envelope glycoprotein gp160 (Q6QLK5 whole entry): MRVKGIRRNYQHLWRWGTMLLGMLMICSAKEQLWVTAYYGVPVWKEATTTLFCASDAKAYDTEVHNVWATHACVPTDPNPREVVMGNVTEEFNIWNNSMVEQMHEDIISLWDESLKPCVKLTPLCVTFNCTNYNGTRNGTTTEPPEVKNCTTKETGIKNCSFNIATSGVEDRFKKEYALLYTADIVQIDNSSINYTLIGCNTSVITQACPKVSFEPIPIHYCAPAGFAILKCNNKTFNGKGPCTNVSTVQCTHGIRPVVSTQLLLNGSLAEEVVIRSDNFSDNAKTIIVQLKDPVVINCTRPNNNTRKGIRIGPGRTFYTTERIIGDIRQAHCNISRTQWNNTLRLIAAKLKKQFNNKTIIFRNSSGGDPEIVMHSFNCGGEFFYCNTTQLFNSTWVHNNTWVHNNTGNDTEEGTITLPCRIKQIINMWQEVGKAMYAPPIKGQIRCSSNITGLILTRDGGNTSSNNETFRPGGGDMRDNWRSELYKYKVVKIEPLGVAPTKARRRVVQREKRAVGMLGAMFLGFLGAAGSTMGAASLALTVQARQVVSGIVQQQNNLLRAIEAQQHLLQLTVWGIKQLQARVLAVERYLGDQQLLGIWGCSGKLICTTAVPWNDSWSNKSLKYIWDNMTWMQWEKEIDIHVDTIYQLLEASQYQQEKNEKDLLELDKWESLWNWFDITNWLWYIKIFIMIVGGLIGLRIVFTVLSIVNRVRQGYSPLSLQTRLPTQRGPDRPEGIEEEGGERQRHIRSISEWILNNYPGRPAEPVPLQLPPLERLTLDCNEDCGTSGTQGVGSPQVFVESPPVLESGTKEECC
# [3] = target: Envelope glycoprotein gp160 (Human immunodeficiency virus 1) (UniProt Q6QLK5); test: Binding affinity to HIV1 cYTA48P envelope glycoprotein gp120 infected in human TZM-b1 cells assessed as induction of conformational changes by measuring combination index at 450:1 ratio of test compound to KD-247 measured after 48 hrs; type: cell-based
# Sequence of Envelope glycoprotein gp160 (Human immunodeficiency virus 1) (Q6QLK5 1-814): as the sequence (Q6QLK5 whole entry) above
# [4] = Aqueous solubility of the compound in phosphate buffered saline; type: physicochemical
# [5] = target: Envelope glycoprotein gp160 (Human immunodeficiency virus 1) (UniProt Q6QLK5); test: Binding affinity to HIV1 cYTA48P envelope glycoprotein gp120 infected in human TZM-b1 cells assessed as induction of conformational changes by measuring combination index at 15:1 ratio of test compound to KD-247 measured after 48 hrs; type: cell-based
IC50 [2],CI [3],solubility [4],CI [5],SMILES,CC50 [1]
4 µM,–,–,–,CC1(C)CC(NC(=O)C(=O)Nc2ccc(Cl)nc2)CC(C)(C)N1,> 300 µM
2.1 µM,0.34,6.67 mM,–,CC1(C)CC(NC(=O)C(=O)Nc2ccc(F)nc2)CC(C)(C)N1,> 300 µM
0.17 µM,–,1.39 mM,0.52,CC1(C)CC(NC(=O)C(=O)Nc2ccc(Cl)cc2)CC(C)(C)N1,116 µM
42 µM,–,–,–,CC1(C)CC(NC(=O)C(=O)Nc2ccc(Br)cn2)CC(C)(C)N1,71 µM
1.2 µM,–,3.62 mM,–,CC1(C)CC(NC(=O)C(=O)Nc2ccc(Br)nc2)CC(C)(C)N1,> 300 µM
59 µM,–,–,–,CC1(C)CC(NC(=O)C(=O)Nc2ccc(F)cn2)CC(C)(C)N1,> 300 µM
63 µM,–,–,–,CC1(C)CC(NC(=O)C(=O)Nc2ccnc(F)c2)CC(C)(C)N1,> 300 µM
0.0035 µM,–,–,–,O=C1Nc2ccc(Cl)cc2[C@@](C#CC2CC2)(C(F)(F)F)O1 [EFAVIRENZ],20 µM
27 µM,–,–,–,COc1ccc(NC(=O)C(=O)NC2CC(C)(C)NC(C)(C)C2)cn1,> 300 µM
68 µM,–,–,–,CC1(C)CC(NC(=O)C(=O)Nc2ccc(I)cn2)CC(C)(C)N1,205 µM
3.6 µM,0.16,–,–,CC1(C)CC(NC(=O)C(=O)Nc2ccnc(Br)c2)CC(C)(C)N1,295 µM
46 µM,–,–,–,CC1(C)CC(NC(=O)C(=O)Nc2ccc(C(F)(F)F)cn2)CC(C)(C)N1,> 300 µM
2.3 µM,0.2,–,–,CC1(C)CC(NC(=O)C(=O)Nc2ccnc(Cl)c2)CC(C)(C)N1,> 300 µM
61 µM,–,–,–,CC1(C)CC(NC(=O)C(=O)Nc2ccc(Cl)cn2)CC(C)(C)N1,> 300 µM
7.6 µM,–,–,–,CC1(C)CC(NC(=O)C(=O)Nc2cnc(F)c(F)c2)CC(C)(C)N1,> 300 µM

SMILES,IC50 [2],CI [3],solubility [4],CI [5],CC50 [1]
O=C(Nc1ccc(F)nc1)C(=O)NC1CCNC2(CCCCC2)C1 (centres undefined),0.46 µM,–,–,–,> 300 µM
CC1(C)CC(NC(=O)C(=O)Nc2ccncc2)CC(C)(C)N1,> 100 µM,–,–,–,> 300 µM
O=C(Nc1ccc(Br)nc1)C(=O)NC1CCNC2(CCCCC2)C1 (centres undefined),1.2 µM,–,–,–,180 µM
CC1(C)CC(NC(=O)C(=O)Nc2cccnc2Cl)CC(C)(C)N1,> 100 µM,–,–,–,> 300 µM
CC1(C)CC(NC(=O)C(=O)Nc2cccnc2)CC(C)(C)N1,> 100 µM,–,–,–,> 300 µM
Cc1cccc(NC(=O)C(=O)NC2CC(C)(C)NC(C)(C)C2)n1,> 100 µM,–,–,–,257 µM
